Laboratory results from patent US8859819B2, “Sulphurated derivatives of resorcinol, preparation of same and cosmetic uses thereof” (Pierre Fabre Dermo-Cosmetique, priority 2009, dated 2014).

What was measured:
[1] = target: T1, mushroom tyrosinase (Agaricus bisporus, UniProt C7FF04); assay: Tyrosinase inhibition test (in vitro acellular depigmenting activity); type: biochemical; settings: for Tyrosinase depigmenting activity result: class symbol, assay from 250 to 150 μM, overall tyrosinase activity (MPMOg), L-tyrosine substrate
T1 construct: purchased Sigma T-3824
T1 sequence (C7FF04 1-392 limits assumed): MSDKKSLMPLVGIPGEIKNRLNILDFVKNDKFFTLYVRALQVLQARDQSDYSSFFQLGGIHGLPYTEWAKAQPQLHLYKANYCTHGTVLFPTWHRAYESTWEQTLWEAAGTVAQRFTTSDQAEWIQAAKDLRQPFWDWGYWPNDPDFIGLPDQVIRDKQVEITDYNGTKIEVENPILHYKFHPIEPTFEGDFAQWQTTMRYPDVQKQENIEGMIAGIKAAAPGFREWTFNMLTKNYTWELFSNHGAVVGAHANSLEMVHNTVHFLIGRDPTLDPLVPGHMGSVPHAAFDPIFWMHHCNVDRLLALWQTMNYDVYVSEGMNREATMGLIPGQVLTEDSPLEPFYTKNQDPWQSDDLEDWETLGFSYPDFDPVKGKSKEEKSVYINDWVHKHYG
Source text: A) Determination of the Depigmenting Activity in an in vitro Acellular Test: Tyrosinase Inhibition Test)
This test is used to evaluate the depigmenting activity of the molecules tested. Tyrosinase is a limiting enzyme in melanogenesis.
It belongs to the family of oxydoreductases. It has in particular the function: monophenol monooxygenase (MPMO) and polyphenol oxidase (PPO).
It is synthesised at the level of the melanocytes. It is activated during its migration towards melanosome […]. It transforms tyrosine into DOPA then dopaquinone, which leads in fine to a polymerisation, i.e. a production of pigments (see diagram below).
The substrate: L-tyrosine, is transformed into L-DOPA by the monophenol mono oxygenase function which is transformed by the polyphenol oxidase function from tyrosinase into dopaquinone. The latter is going to self-oxidise into dopachrome which is measured by spectrophotometry at 490 nm.
More precisely, it is the overall tyrosinase activity (MPMOg) which is measured since it is the dopachrome in fine that is assayed. Thus the products tested on MPMOg (=measurement of the activity on PPO and MPMO) can cumulate the inhibition of the 2 functions, • inhibiting uniquely the MPMO function stricto sensus (transformation of tyrosine into DOPA) as a complement to the PPO test, • could inhibit PPO uniquely. General Experimental Conditions:

[2] = tested on: B16-F10 cells; assay: Melanin assay test in B16-F10 cells; type: cell-based, murine; settings: for inhibition at 20 µM / inhibition at 10 µM: B16-F10, 72 h
Procedure: B) Melanin Assay Test in B16-F10 Cells:
This involves a test of measuring the synthesis of melanin by colorimetric assay on a murine melanoma cell line: the B16-F10 line. This test makes it possible to evaluate the depigmenting power of active ingredients.
The B16-F10 cells are cultured in 96-well plates in DMEM medium supplemented with FCS (foetal calf serum), and incubated for 24 hours at 37° C., 5% CO2. The cells are then stimulated with 0.1 μM α-MSH (to stimulate the synthesis of melanin, the stimulation observed is around 150%) and treated for 72 hours with the active ingredients to be tested. Each concentration of active ingredient is tested at least in triplicate. The total melanin followed by the intracellular melanin dissolved in the lysis buffer are then assayed by absorbance reading at 405 nm. The total proteins are assayed in the lysate and the results are expressed in mg melanin/mg proteins. The percentage of activity is calculated as follows: […]
A negative value indicates an inhibition, whereas a positive value indicates an induction of the synthesis of melanin.
• B16-F10 cell line between P10 and P20 (murine melanocytes) (ATCC, CRL-6475)
Reagents: • DMEM without phenol red (GibcoBRL, 31053-028), 200 mM Glutamax-I Supplement (GibcoBRL, 35050-038), D-PBS (GibcoBRL, 14190-094), Foetal calf serum (Invitrogen, 10270-098), Trypsine-EDTA (GibcoBRL, 25300-054), NaOH (Sigma, S8045-500G), DMSO (Sigma, 471267-1L), Nle, Phe—Melanocyte Stimulating Hormone (Sigma, M-8764), Melanin (Sigma, M-0418), BCA-Copper (Sigma, B9643 and C2284), BSA (Sigma, P0914) C) Test for the Study of the Antioxidant Capacity by Chemiluminescence (Photochem Analytik Jena) Principle: […]

[3] = Antioxidant capacity by chemiluminescence (Photochem Analytik Jena); settings: Trolox equivalent; lower = stronger antioxidant
Procedure: This test is used to determine the antioxidant capacity of the molecules. It is a method that generates free radicals by a photochemical signal. The intensity of the oxidation is 1000 times greater than that obtained under normal conditions.
The detection is carried out by chemiluminescence. It enables the evaluation of hydrosoluble and liposoluble anti-oxidant molecules or extracts.
The results are expressed respectively in equivalent quantity of vitamin C or Trolox (6-hydroxy-2,5,7,8-tetramethylchroman-2-carboxylic acid). The sensitivity is of the order of a nanomole.
The antioxidant activity studied in this test represents the capacity to trap specifically superoxide anions by chemiluminescence.
The quantified results are expressed in Trolox equivalent (standard), i.e. in “μg of product for 1 μg of Trolox”. This signifies that a quantity×of sample is needed to obtain an activity equivalent to the activity detected for 1 μg of standard. It is an anti-oxidant power relative to a reference, which makes it possible to disregard the concentration tested.
The superoxide radical: 02^0− is generated by a photochemical reaction: L+hv (UV)+O2→L*O2→L^0++O2^0−
A part of the superoxide anions is quenched by the anti-oxidants. The remaining free radicals are quantified by chemiluminescence. L^0++O2^0−→N2+AP*^2−→AP^2−+hv (luminescence)

[4] = Protection of linoleic acid following a UV stress (Fenton conditions, MDA-TBA assay); design: % Protection Linoleic acid under UV/Fenton: concentration or dose not given beside the values; settings: UV + H2O2 + iron II
Source text: D) Test of Protection of Linoleic Acid Following a UV Stress. Target: Protection of Linoleic Acid Under Fenton Conditions, UV Irradiation Linoleic acid belongs to the family of polyunsaturated fatty acids (PUFA) (AGPI). Sensitive to oxidation, linoleic acid is a favoured target for oxygenated free radicals (OFR) in biological media. When biological membranes are exposed to an oxidative stress, the components the most affected are the phospholipids constituted of PUFA and cholesterol. Their degradation leads to lipidic peroxidation and generally to destructuring. Lipidic peroxidation is a self-catalysing process which generally involves OFR. Lipidic peroxidation is in part responsible for skin ageing. The method employed to evaluate lipid peroxidation is based on the coupling of thiobarbituric acid (TBA) and secondary degradation products leading to coloured compounds detectable by spectrofluorometry. The essential secondary compound of final degradation is malondialdehyde, MDA. MDA is a carcinogenic and mutagenic aldehyde, it acts on proteins and DNA. The sample to be tested is placed in contact with linoleic acid in a weight/weight ratio. The sample undergoes an MED (Minimal Erythemal Dose) irradiation under Fenton conditions, namely in the presence of H202 and iron II in a solar simulator. Following irradiation, the reaction mixture is taken up in methanol and derivatised at 90° C. with TBA. Chromogene, the MDA-TBA complex, representative of the equimolar production of MDA is assayed by fluorimetry (excitation at 525 nm, emission at 549 nm). The results are expressed in fluorescence units, as a function of a MDA-TBA control range then expressed as concentration of the MDA-TBA complex. Then, the percentage of the starting MDA/linoleic acid (LA) ratio is determined. Then the percentage of protection of linoleic acid is determined. The product assay is expressed as weight/weight ratio, in other words in weight percentage with respect to the total quantity of linoleic acid. The maximal MDA level is determined by the condition UV+H202+iron II (F). The percentage of protection of linoleic acid represents: the % ratio of MDA under maximal stress conditions untreated over the % of MDA under stress conditions treated by the product.

[5] = Mus musculus, read-out: B16 activity results -% at X μM

SMILES	Tyrosinase depigmenting activity result [1]	inhibition at 61 µM ([2]; Mus musculus, B16-F10, 61 μM, α-MSH stimulated, 72 hours, negative value = inhibition, read-out: B16 activity results -% at X μM)	μg of sample for 1 μg of Trolox [3]	% Protection Linoleic acid under UV/Fenton [4]	B16 activity results -% at X μM ([2]; 14 μM, α-MSH stimulated, 72 hours, negative value = inhibition)	inhibition at 20 µM [2, 5]	inhibition at 10 µM [2, 5]	inhibition at 92 µM ([2]; Mus musculus, B16-F10, 92 μM, α-MSH stimulated, 72 hours, negative value = inhibition, read-out: B16 activity results -% at X μM)	inhibition at 50 µM ([2]; Mus musculus, B16-F10, 50 μM, α-MSH stimulated, 72 hours, negative value = inhibition of melanin synthesis, read-out: B16 activity results -% at X μM)	IC50 [1]	inhibition at 32 µM ([2]; Mus musculus, B16-F10, 32 μM, α-MSH stimulated, 72 hours, negative value = inhibition, read-out: B16 activity results -% at X μM)
Oc1ccc(Sc2ccc(O)cc2O)c(O)c1 [Example 1, 4,4′-thiodibenzene-1,3-diol]	+ + +	50%	23 μg of sample for 1 μg of Trolox	90%	–	–	–	–	–	–	–
CC(C)=CCC/C=C(\C)CC/C(C)=C/COc1cc(O)ccc1Sc1ccc(O)cc1O [Example 2, 4-(4-hydroxy-2-((2E,6E)-3,6,11-trimethyldodcca-2,6,10-trienyloxy)phenylthio)benzene-1,3-diol]	+ +	–	9.7 μg of sample for 1 μg of Trolox	92%	−50% (14 μM)	–	–	–	–	–	–
CC(C)=CCOc1cc(O)ccc1Sc1ccc(O)cc1O [Example 3, 4-(4-hydroxy-2-(3-methylbut-2-enyloxy)phenylthio)benzene-1,3-diol]	+ + +	–	4.7 μg of sample for 1 μg of Trolox	87%	–	41%	–	–	–	–	–
CC(C)=CCC/C(C)=C/COc1cc(O)ccc1Sc1ccc(O)cc1O [Example 4, (E)-4-(2-(3,7-dimethylocta-2,6-dienyloxy)-4-hydroxyphenylthio)benzene-1,3-diol]	+ + +	–	5.2 μg of sample for 1 μg of Trolox	89%	–	–	35%	–	–	–	–
CCCCCCCCOc1ccc(Sc2ccc(O)cc2O)c(O)c1 [Example 8, 4-(2-hydroxy-4-(octyloxy)phenylthio)benzene-1,3-diol]	+ + +	–	18.8 μg of sample for 1 μg of Trolox	97%	–	–	40%	–	–	–	–
Oc1ccc(Sc2ccc(O)cc2OCc2ccccc2)c(O)c1 [Example 9, 4-(2-(benzyloxy)-4-hydroxyphenylthio)benzene-1,3-diol]	+ + +	–	3.2 μg of sample for 1 μg of Trolox	85%	–	31%	–	–	–	–	–
Oc1ccc(Sc2ccc(OCc3ccccc3)cc2O)c(O)c1 [Example 10, 4-(4-(benzyloxy)-2-hydroxyphenylthio)benzene-1,3-diol]	+ + +	–	22 μg of sample for 1 μg of Trolox	94%	–	20%	–	–	–	–	–
COc1ccc(COc2cc(O)ccc2Sc2ccc(O)cc2O)cc1 [Example 11, 4-(4-hydroxy-2-(4-methoxybenzyloxy)phenylthio)benzene-1,3-diol]	+ + +	–	3.5 μg of sample for 1 μg of Trolox	91%	–	34%	–	–	–	–	–
CCCCCCCC(=O)Oc1cc(O)ccc1Sc1ccc(O)cc1O [Example 15, 2-(2,4-dihydroxyphenylthio)-5-hydroxyphenyl octanoate]	+ +	–	30 μg of sample for 1 μg of Trolox	75%	–	–	20%	–	–	–	–
O=C(CCc1ccccc1)Oc1cc(O)ccc1Sc1ccc(O)cc1O [Example 17, 2-(2,4-dihydroxyphenylthio)-5-hydroxyphenyl 3-phenylpropanoate]	+ + +	–	3.9 μg of sample for 1 μg of Trolox	87%	–	–	–	50%	–	–	–
O=C(CCc1ccccc1)Oc1ccc(Sc2ccc(O)cc2O)c(O)c1 [Example 18, 4-(2,4-dihydroxyphenylthio)-3-hydroxyphenyl 3-phenylpropanoate]	+ + +	–	24.1 μg of sample for 1 μg of Trolox	90%	–	–	–	–	20%	–	–
CCCCC/C=C\C/C=C\CCCCCCCC(=O)Oc1cc(O)ccc1Sc1ccc(O)cc1O [Example 21, (9Z, 12Z)-2-(2,4-dihydroxyphenylthio)-5-hydroxyphenyl octadeca-9,12-dienoate]	+ + +	–	5.9 μg of sample for 1 μg of Trolox	–	–	–	–	–	–	11 µM	50%
